Measurements as given in the supplement of paper PMC10307832.

Experiments:
Test in all cases: relative viability (nuclei count vs DMSO), 5 days (fraction); higher = more cells survive
Carboplatin + Pictilisib = compound: C1CC(C1)(C(=O)O)C(=O)O.[NH2-].[NH2-].[Pt+2] [Carboplatin] + CS(=O)(=O)N1CCN(Cc2cc3nc(-c4cccc5[nH]ncc45)nc(N4CCOCC4)c3s2)CC1 [Pictilisib] (partner 1 µM)
In short: (§1)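 Each reported value is a median over duplicate plates. It expresses relative viability: treated-well nuclei count divided by vehicle-well nuclei count. Lung cancer cell lines in 1536-well plates were dosed by pin tool a day after seeding, alone with one drug or with a fixed anchor-drug dose plus five library-drug doses (not always all listed) in √10 steps, and nuclei were counted after 5 days.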

MLN4924 + Trametinib = compound: NS(=O)(=O)OC[C@@H]1C[C@@H](n2ccc3c(N[C@H]4CCc5ccccc54)ncnc32)C[C@@H]1O [MLN4924] + CC(=O)Nc1cccc(-n2c(=O)n(C3CC3)c(=O)c3c(Nc4ccc(I)cc4F)n(C)c(=O)c(C)c32)c1 [Trametinib] (partner 0.02 µM)
In short: as §1

MLN4924 + Palbociclib = compound: NS(=O)(=O)OC[C@@H]1C[C@@H](n2ccc3c(N[C@H]4CCc5ccccc54)ncnc32)C[C@@H]1O [MLN4924] + CC(=O)c1c(C)c2cnc(Nc3ccc(N4CCNCC4)cn3)nc2n(C2CCCC2)c1=O [Palbociclib] (partner 0.5 µM)
In short: as §1

MLN4924 + AZD7762 = compound: NS(=O)(=O)OC[C@@H]1C[C@@H](n2ccc3c(N[C@H]4CCc5ccccc54)ncnc32)C[C@@H]1O [MLN4924] + NC(=O)Nc1cc(-c2cccc(F)c2)sc1C(=O)N[C@H]1CCCNC1 [AZD7762] (partner 0.2 µM)
In short: as §1

Row | Cell Line | relative viability (Carboplatin + Pictilisib; first compound 0.08 µM) | relative viability (Carboplatin + Pictilisib; first compound 0.8 µM) | relative viability (Carboplatin + Pictilisib; first compound 2.53 µM) | relative viability (Carboplatin + Pictilisib; first compound 8 µM) | relative viability (MLN4924 + Trametinib; first compound 0.04 µM) | relative viability (MLN4924 + Trametinib; first compound 0.1265 µM) | relative viability (MLN4924 + Trametinib; first compound 0.4 µM) | relative viability (MLN4924 + Trametinib; first compound 1.265 µM) | relative viability (MLN4924 + Trametinib; first compound 4 µM) | relative viability (MLN4924 + Palbociclib; first compound 0.04 µM) | relative viability (MLN4924 + Palbociclib; first compound 0.1265 µM) | relative viability (MLN4924 + Palbociclib; first compound 0.4 µM) | relative viability (MLN4924 + Palbociclib; first compound 1.265 µM) | relative viability (MLN4924 + Palbociclib; first compound 4 µM) | relative viability (MLN4924 + AZD7762; first compound 0.04 µM) | relative viability (MLN4924 + AZD7762; first compound 0.1265 µM) | relative viability (MLN4924 + AZD7762; first compound 0.4 µM) | relative viability (MLN4924 + AZD7762; first compound 1.265 µM) | relative viability (MLN4924 + AZD7762; first compound 4 µM) | relative viability (Carboplatin + Pictilisib; first compound 0.253 µM)
1 | LCLC-97TM1 | 0.209 | 0.233 | 0.194 | 0.18 | 0.208 | 0.214 | 0.157 | 0.0691 | 0.0607 | 0.185 | 0.114 | 0.0981 | 0.0625 | 0.0723 | 0.338 | 0.22 | 0.0891 | 0.0605 | 0.0696 | –
2 | LCLC-103H | 0.65 | 0.613 | 0.646 | 0.611 | 0.697 | 0.651 | 0.513 | 0.331 | 0.307 | 0.47 | 0.421 | 0.352 | 0.265 | 0.32 | 0.831 | 0.833 | 0.7 | 0.239 | 0.247 | 0.597
3 | LK-2 | 0.707 | 0.462 | 0.401 | 0.613 | 0.699 | 0.677 | 0.618 | 0.245 | 0.212 | 0.508 | 0.342 | 0.284 | 0.138 | 0.161 | 0.329 | 0.307 | 0.309 | 0.124 | 0.155 | 0.643
4 | LOU-NH91 | 0.551 | 0.5 | 0.525 | 0.576 | 0.775 | 0.853 | 0.731 | 0.575 | 0.525 | 0.494 | 0.521 | 0.532 | 0.426 | 0.413 | 0.785 | 0.95 | 0.823 | 0.645 | 0.459 | 0.57
5 | LU99A | 0.3 | 0.323 | 0.328 | 0.307 | 0.493 | 0.342 | 0.291 | 0.172 | 0.146 | 0.414 | 0.333 | 0.318 | 0.163 | 0.125 | 0.28 | 0.214 | 0.185 | 0.154 | 0.114 | 0.379
6 | LXF-289 | 0.889 | 0.8 | 0.832 | 0.766 | 0.568 | 0.419 | 0.464 | 0.216 | 0.131 | 0.568 | 0.458 | 0.472 | 0.194 | 0.112 | 1.06 | 0.775 | 0.691 | 0.113 | 0.0848 | 0.883
7 | NCI-H23 | 0.477 | 0.481 | 0.472 | 0.391 | 0.403 | 0.391 | 0.326 | 0.201 | 0.167 | 0.478 | 0.441 | 0.26 | 0.175 | 0.2 | 0.304 | 0.263 | 0.282 | 0.213 | 0.28 | 0.483
8 | NCI-H322M | 0.567 | 0.507 | 0.542 | 0.521 | 0.662 | 0.735 | 1.03 | 0.452 | 0.389 | 0.56 | 0.656 | 0.504 | 0.389 | 0.395 | 0.688 | 0.643 | 0.64 | 0.317 | 0.39 | 0.465
9 | NCI-H358 | 0.373 | 0.321 | 0.448 | 0.376 | 0.167 | 0.137 | 0.138 | 0.115 | 0.0882 | 0.127 | 0.16 | 0.115 | 0.0864 | 0.0788 | 0.518 | 0.472 | 0.369 | 0.144 | 0.215 | 0.366
10 | NCI-H441 | 0.56 | 0.414 | 0.492 | 0.433 | 0.576 | 0.508 | 0.598 | 0.152 | 0.19 | 0.236 | 0.224 | 0.165 | 0.104 | 0.101 | 1.23 | 1.12 | 0.722 | 0.452 | 0.173 | 0.588
11 | NCI-H460 | 0.379 | 0.352 | 0.321 | 0.213 | 0.3 | 0.205 | 0.332 | 0.0885 | 0.0366 | 0.189 | 0.121 | 0.0985 | 0.0213 | 0.0283 | 0.575 | 0.772 | 0.621 | 0.206 | 0.0543 | 0.356
12 | NCI-H647 | 0.572 | 0.368 | 0.482 | 0.429 | 0.576 | 0.538 | 0.25 | 0.0717 | 0.072 | 0.22 | 0.264 | 0.0524 | 0.029 | 0.0424 | 0.412 | 0.334 | 0.0972 | 0.0222 | 0.0279 | 0.477
13 | NCI-H650 | 0.948 | 0.826 | 0.791 | 0.562 | 0.894 | 0.76 | 0.574 | 0.201 | 0.176 | 0.307 | 0.182 | 0.159 | 0.136 | 0.166 | 1.1 | 0.578 | 0.371 | 0.231 | 0.148 | 1.03
14 | NCI-H727 | 0.348 | 0.314 | 0.29 | 0.352 | 0.442 | 0.454 | 0.403 | 0.358 | 0.365 | 0.681 | 0.584 | 0.566 | 0.476 | 0.535 | 0.574 | 0.432 | 0.402 | 0.372 | 0.242 | 0.512
15 | NCI-H838 | 0.476 | 0.469 | 0.454 | 0.485 | 0.438 | 0.331 | 0.172 | 0.0938 | 0.126 | 0.253 | 0.256 | 0.175 | 0.138 | 0.138 | 0.916 | 0.82 | 0.737 | 0.589 | 0.618 | 0.391
16 | NCI-H1355 | 0.394 | 0.461 | 0.431 | 0.454 | 0.474 | 0.477 | 0.444 | 0.243 | 0.232 | 0.418 | 0.409 | 0.445 | 0.234 | 0.195 | 0.833 | 0.875 | 0.788 | 0.441 | 0.234 | 0.537
